Measured values published in patent US7521448B2, “N-substituted benzimidazolyl c-Kit inhibitors” (OSI Pharmaceuticals, Inc., priority 2003, dated 2009).
pIC50: −log10 of the molar value. Where a name gives a salt, the structure may show the parent alone.

Key:
[1] = target: T1, wild-type c-Kit receptor protein endogenously expressed in H526 cells (Homo sapiens, UniProt P10721); experiment: Assay for inhibition of c-Kit in intact cells (cell-based ELISA of SCF-induced tyrosine phosphorylation); conditions: read-out: results in the assay above (IC50, inhibition of SCF-induced tyrosine phosphorylation of c-Kit)
T1 construct: wild-type c-Kit receptor protein that is endogenously expressed in H526 cells; host or cells: H526 human small cell lung cancer cells
Description: I. Assay for Inhibition of c-Kit in Intact Cells
The ability of compounds to inhibit the tyrosine kinase activity of c-Kit was determined in a cell-based ELISA assay using the H526 cell line (ATCC # CRL-5811), which was originally derived from a human small cell lung cancer. The assay determines the ability of compounds to block ligand-stimulated tyrosine phosphorylation of the wild-type c-Kit receptor protein that is endogenously expressed in H526 cells. Cells are pre-incubated with compounds at various concentrations prior to addition of stem cell factor (SCF), the ligand for the c-Kit receptor tyrosine kinase. […] The phosphotyrosine content of the receptor protein is then monitored by quantitation of the degree of binding of an antibody that recognizes only the phosphorylated tyrosine residues within the captured protein. The antibody used has a reporter enzyme (e.g. horseradish peroxidase, HRP) covalently attached, such that binding of antibody to phosphorylated c-Kit can be determined quantitatively by incubation with an appropriate HRP substrate. […]
Comparison of the assay signals obtained in the presence of compound with those of the positive and negative controls (cells incubated in the presence or absence of SCF, with no compound added), allows the degree of inhibition of c-Kit receptor tyrosine phosphorylation to be determined over a range of compound concentrations. […]

[2] = tested on: MO7e human leukemia cells; conditions: cited from earlier work
[3] = tested on: MO7e human leukemia cells; conditions: cited from earlier work; remark: listed apart in the source

T1 sequence (P10721 26-976): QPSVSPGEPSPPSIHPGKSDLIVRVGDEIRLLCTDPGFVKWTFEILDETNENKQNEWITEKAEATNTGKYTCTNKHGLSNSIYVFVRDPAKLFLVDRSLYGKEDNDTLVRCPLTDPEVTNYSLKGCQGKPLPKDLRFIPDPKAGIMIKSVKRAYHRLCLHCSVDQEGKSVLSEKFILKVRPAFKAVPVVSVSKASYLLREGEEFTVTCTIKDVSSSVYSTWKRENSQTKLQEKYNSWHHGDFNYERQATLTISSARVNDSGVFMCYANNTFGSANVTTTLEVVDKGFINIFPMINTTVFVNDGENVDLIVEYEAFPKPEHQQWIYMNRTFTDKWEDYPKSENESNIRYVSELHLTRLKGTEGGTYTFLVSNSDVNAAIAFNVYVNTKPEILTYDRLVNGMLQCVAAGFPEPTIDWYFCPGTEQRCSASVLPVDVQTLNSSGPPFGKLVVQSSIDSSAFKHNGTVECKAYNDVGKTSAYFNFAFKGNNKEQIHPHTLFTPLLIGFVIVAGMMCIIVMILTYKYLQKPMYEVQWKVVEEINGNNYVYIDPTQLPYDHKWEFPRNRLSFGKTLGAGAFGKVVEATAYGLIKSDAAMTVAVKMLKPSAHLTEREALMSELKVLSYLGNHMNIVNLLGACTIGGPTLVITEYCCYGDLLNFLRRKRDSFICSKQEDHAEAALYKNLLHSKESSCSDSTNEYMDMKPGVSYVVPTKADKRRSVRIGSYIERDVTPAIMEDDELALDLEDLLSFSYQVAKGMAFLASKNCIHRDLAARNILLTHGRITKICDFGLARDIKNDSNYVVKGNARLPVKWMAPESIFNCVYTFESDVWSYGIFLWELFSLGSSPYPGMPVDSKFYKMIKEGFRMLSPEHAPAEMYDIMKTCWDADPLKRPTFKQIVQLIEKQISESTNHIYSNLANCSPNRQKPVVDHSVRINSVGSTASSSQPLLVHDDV

O=C(NCc1cccnc1)c1ccc2c(c1)ncn2-c1cccc(NS(=O)(=O)c2cccc(Cl)c2)c1 [Compound Q5, 1-(3-{[(3-Chlorophenyl)sulfonyl]amino}phenyl)-N-pyridin-3-ylmethyl-1H-benzimidazole-5-carboxamide]
pIC50 [1]: < 5.00

O=C(NCc1cccnc1)c1ccc2c(c1)ncn2-c1ccc(OCCOc2ncc(C(F)(F)F)cc2Cl)cc1 [Compound H13, N-Pyridin-3-ylmethyl-1-{4-[2-(3-chloro-5-trifluoromethylpyridin-2-yloxy)ethoxy]phenyl}-1H-benzimidazole-5-carboxamide]
pIC50 [1]: < 5.00

Cc1ccc(NC(=O)c2ccc(CN3CCN(C)CC3)cc2)cc1Nc1nccc(-c2cccnc2)n1 [Gleevec™, imatinib mesylate]
Kit ligand-stimulated growth of MO7e human leukemia cells ([2]; Kit ligand-stimulated): inhibited
apoptosis ([2]; under Kit ligand-stimulated conditions, MO7e cells): induces apoptosis
GM-CSF stimulated growth of MO7e human leukemia cells [3]: not affected
